Measured values published in US20240309447A1, “METHODS AND KITS FOR PREPARING A SAMPLE […] OR MORE RNA MOLECULES FOR SEQUENCING” (The Hong Kong University of Science and Technology, priority 2023, published 2024).

What was measured:
Format in all cases: biochemical
[1] = biological target: T1, E coli. poly(A) polymerase (Escherichia coli, UniProt P0ABF1); experiment: One-pot 3′ extension of model short RNA, Urea-PAGE; conditions: 15 minutes analogue, then ATP added, 37° C.
Experimental: In this example, the reaction cocktail for the one-pot 3′ extension of model short RNA (as shown in Table 1) was prepared as described in Table 4. The reaction cocktail (without ATP) was incubated at 37° C. for 15 minutes to allow for 2-Amino-6-Cl-purine-rTP addition. After 15 minutes of reaction, 1 μL of 10 mM ATP (New England BioLabs®) was directly added into the reaction mixture, and further incubated for different durations of time at 37° C.

[2] = biological target: T1, E coli. poly(A) polymerase; experiment: Poly(A) polymerase-based reaction with different nucleotide analogues and their combination on UnaG-120A mRNA, Fragment Analyzer; conditions: for addition to UnaG-120A mRNA by poly(A) polymerase: 1 mM total analogue, 37° C., 15 minutes; for appearance of the RNA product: UnaG-120A mRNA, Fragment Analyzer
Experimental: In this example, the ability of poly(A) polymerase-based reaction to add different nucleotide analogues to the 3′ termini of UnaG-120A mRNA as the oligo nucleotide analogue sequence has been tested. […] The 10 μL of the reaction mixture was incubated at 37° C. for 15 minutes. The reacted RNA products were visualized using Fragment Analyzer.

[3] = biological target: T1, E coli. poly(A) polymerase; experiment: Poly(A) polymerase-based extension of model mRNA mixture, Fragment Analyzer; conditions: mixture of CLuc-53AGGCCCCU, EGFP-40A, UnaG-120A; 15-minute extension
Source text: In this example, three model mRNAs CLuc-53AGGCCCCU, EGFP-40A, and UnaG-120A as shown in Table 1 are mixed in an equal amount to create a model mRNA mixture. The same poly(A) polymerase-based extension as described in Example 5 was used to add 2-Amino-6-Cl-purine-rTP to the model RNA mixture. Fragment Analyzer (Agilent®) was used to measure the lengths of the model RNA mixture before and after the reaction.

[4] = biological target: T1, E coli. poly(A) polymerase; experiment: Poly(A) polymerase-based extension of model short RNA (A-terminated), Urea-PAGE; conditions: for addition of nucleotide analogue sequence to the 3′ termini of the model short RNA: 1 mM analogue, 15 minutes, model short RNA (A-terminated)
Experimental: The reaction cocktail was used in the subsequent studies as described in examples below.
ATP was used as the positive control. The reaction cocktail for the poly(A) polymerase-based extension for each of the nucleoside analogue triphosphates and ATP was prepared as described in Table 2. The 10 μL of the reaction cocktail was incubated at 37° C. for 15 minutes to allow the extension of the adenine nucleotides (A) or nucleotide analogues. The reacted RNA products were visualized using Urea-PAGE.
The experiment was further repeated for 2-Amino-6-Cl-purine-rTP addition by poly(A) polymerase-based extension with different incubation times, i.e. 5, 10, 15, 20 minutes respectively. Addition of ATP by poly(A) polymerase-based extension with 20-minute incubation time was used as the positive control. The reacted RNA products were visualized using Urea-PAGE.

[5] = biological target: T1, E coli. poly(A) polymerase; experiment: Poly(A) polymerase-based extension of C, G and U-terminated model short RNAs, Urea-PAGE; conditions: for addition of oligo nucleotide analogue to model short RNAs with different 3′ terminal bases: 1 mM, 37° C., 15 minutes
Experimental: In this example, 2-Amino-ATP, 2-Amino-6-Cl-purine-rTP and 2′-F-dATP have been tested for poly(A) polymerase-based extension to add the respective oligo nucleotide analogue sequences to the 3′ termini of model short RNAs with different terminal bases other than A, i.e. C, G and U-terminated model short RNAs as shown in Table 1. ATP was used as the positive control. The reaction cocktail for the poly(A) polymerase-based extension for each model short RNA was prepared as described in Table 2. The 10 μL of the reaction mixture was incubated at 37° C. for 15 minutes to allow the addition of 2-Amino-6-Cl-purine-rTP to the model short RNAs. The reacted RNA products were visualized using Urea-PAGE.

T1 sequence (P0ABF1 11-465): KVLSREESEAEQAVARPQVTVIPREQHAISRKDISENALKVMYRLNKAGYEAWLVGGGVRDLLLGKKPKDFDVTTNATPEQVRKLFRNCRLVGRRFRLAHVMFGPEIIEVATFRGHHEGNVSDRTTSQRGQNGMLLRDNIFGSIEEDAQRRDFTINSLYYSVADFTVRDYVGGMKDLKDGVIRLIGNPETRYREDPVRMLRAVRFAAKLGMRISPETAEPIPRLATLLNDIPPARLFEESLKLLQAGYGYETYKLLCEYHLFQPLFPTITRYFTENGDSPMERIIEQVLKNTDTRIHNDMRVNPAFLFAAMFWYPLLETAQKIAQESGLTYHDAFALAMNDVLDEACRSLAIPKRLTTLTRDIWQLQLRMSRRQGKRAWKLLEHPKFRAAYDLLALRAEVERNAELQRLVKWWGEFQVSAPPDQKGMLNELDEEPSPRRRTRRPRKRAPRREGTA

Structure (SMILES)	sequential addition of oligo analogue sequence and oligo(A) sequence [1]	addition to UnaG-120A mRNA by poly(A) polymerase [2]	appearance of the RNA product [2]	addition of oligo sequence to model mRNAs (upward band shift) [3]	addition of nucleotide analogue sequence to the 3′ termini of the model short RNA ([4]; 37° C.)	time within which the reaction was complete ([4]; 37° C., 1 mM) [min]	nucleotides added to the 3′ terminus of model short RNA ([4]; 5 minutes incubation, 37° C., 1 mM)	length of tailed model short RNA product ([4]; 5 minutes incubation, original RNA 136 nt) [nt]	comparison among nucleotide analogues [5]	addition of oligo nucleotide analogue to model short RNAs with different 3′ terminal bases [5]
Nc1nc(Cl)c2ncn(C3OC(COP(=O)(O)OP(=O)(O)OP(=O)(O)O)C(O)C3O)c2n1 (stereo not shown) [2-Amino-6-Cl-purine-rTP]	successfully added	can be added	upshifted clear main band	added to all model mRNAs	successfully added	10 to 20	over 60 nts	> 196	produced the best results	successfully added
Nc1ncnc2c1ncn2C1OC(COP(=O)(O)OP(=O)(O)OP(=O)(O)O)C(O)C1F (stereo not shown) [2′-F-dATP]	–	–	–	–	successfully added	–	–	–	–	successfully added
Nc1nc(N)c2ncn(C3OC(COP(=O)(O)OP(=O)(O)OP(=O)(O)O)C(O)C3O)c2n1 (stereo not shown) [2-Amino-ATP]	–	can be added	distribution of RNA sizes shown as a smear	–	successfully added	–	–	–	–	successfully added
